According to ChEMBL document CHEMBL5143714, “Discovery of BMS-986339, a Pharmacologically Differentiated Farnesoid X Receptor Agonist for the Treatment of Nonalcoholic Steatohepatitis” (J Med Chem, 2022):

Experiments:
[1] = Metabolic stability in human liver microsome assessed as parent compound remaining at […] measured after 10 mins; format: ADME; conditions: liver microsomes, read-out: Stability
[2] = target: Cytochrome P450 2C19 (Homo sapiens, UniProt P33261); experiment: Inhibition of recombinant CYP2C19 (unknown origin) using fluorogenic substrate preincubated for 15 min followed by NADPH addition measured after 2 hrs by fluorescence method; format: ADME
[3] = target: T1, Nuclear receptor subfamily 1 group I member 2 (Homo sapiens, UniProt O75469); experiment: Transactivation of PXR (unknown origin); format: ADME
T1 sequence (O75469 whole entry): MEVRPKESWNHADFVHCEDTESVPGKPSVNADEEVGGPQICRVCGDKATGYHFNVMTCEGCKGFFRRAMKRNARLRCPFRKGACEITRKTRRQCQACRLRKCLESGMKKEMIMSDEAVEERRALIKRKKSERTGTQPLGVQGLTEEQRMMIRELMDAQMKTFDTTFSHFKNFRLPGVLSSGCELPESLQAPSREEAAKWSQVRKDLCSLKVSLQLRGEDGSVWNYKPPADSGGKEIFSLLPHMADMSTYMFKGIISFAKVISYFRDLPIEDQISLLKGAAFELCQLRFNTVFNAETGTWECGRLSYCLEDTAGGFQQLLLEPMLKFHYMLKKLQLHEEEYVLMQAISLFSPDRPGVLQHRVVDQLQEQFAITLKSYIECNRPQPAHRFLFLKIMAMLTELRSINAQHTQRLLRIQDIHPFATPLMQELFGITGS

[4] = target: T2, Bile acid receptor (Homo sapiens, UniProt Q96RI1); experiment: Agonist activity at Gal4-fused human FXR in HEK293 cells incubated for 15 min by luciferase reporter assay; format: cell-based
T2 sequence (Q96RI1 whole entry): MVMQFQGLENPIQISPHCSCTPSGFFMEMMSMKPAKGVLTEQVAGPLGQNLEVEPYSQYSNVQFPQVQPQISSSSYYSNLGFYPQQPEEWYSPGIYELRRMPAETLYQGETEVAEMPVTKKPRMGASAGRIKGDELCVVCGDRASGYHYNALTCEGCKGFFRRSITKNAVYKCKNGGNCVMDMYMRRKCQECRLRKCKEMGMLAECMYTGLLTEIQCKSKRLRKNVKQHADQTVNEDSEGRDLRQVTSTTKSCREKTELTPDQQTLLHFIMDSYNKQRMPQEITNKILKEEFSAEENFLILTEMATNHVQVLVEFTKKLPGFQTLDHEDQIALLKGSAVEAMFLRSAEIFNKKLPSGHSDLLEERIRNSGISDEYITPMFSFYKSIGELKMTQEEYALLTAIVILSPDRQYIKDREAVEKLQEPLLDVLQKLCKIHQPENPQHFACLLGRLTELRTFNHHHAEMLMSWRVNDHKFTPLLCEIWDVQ

[5] = Metabolic stability in rat liver microsome assessed as parent compound remaining at […] measured after 10 mins; format: ADME; conditions: liver microsomes, read-out: Stability
[6] = target: Cytochrome P450 2C9 (Homo sapiens, UniProt P11712); experiment: Inhibition of recombinant CYP2C9 (unknown origin) using fluorogenic substrate preincubated for 15 min followed by NADPH addition measured after 2 hrs by fluorescence method; format: ADME
[7] = target: T1, Nuclear receptor subfamily 1 group I member 2; experiment: Transactivation of PXR (unknown origin) relative to refampicin; format: ADME
[8] = Metabolic stability in mouse liver microsome assessed as parent compound remaining at […] measured after 10 mins; format: ADME; conditions: liver microsomes, read-out: Stability
[9] = Metabolic stability in rat liver microsome assessed as parent compound remaining at 1 mg/mL measured after 10 mins; format: ADME; conditions: liver microsomes, read-out: Stability
[10] = Metabolic stability in human liver microsome assessed as parent compound remaining at 1 mg/mL measured after 10 mins; format: ADME; conditions: liver microsomes, read-out: Stability
[11] = Metabolic stability in mouse liver microsome assessed as parent compound remaining at 1 mg/mL measured after 10 mins; format: ADME; conditions: liver microsomes, read-out: Stability

Cytochrome P450 2C19, sequence (P33261 whole entry): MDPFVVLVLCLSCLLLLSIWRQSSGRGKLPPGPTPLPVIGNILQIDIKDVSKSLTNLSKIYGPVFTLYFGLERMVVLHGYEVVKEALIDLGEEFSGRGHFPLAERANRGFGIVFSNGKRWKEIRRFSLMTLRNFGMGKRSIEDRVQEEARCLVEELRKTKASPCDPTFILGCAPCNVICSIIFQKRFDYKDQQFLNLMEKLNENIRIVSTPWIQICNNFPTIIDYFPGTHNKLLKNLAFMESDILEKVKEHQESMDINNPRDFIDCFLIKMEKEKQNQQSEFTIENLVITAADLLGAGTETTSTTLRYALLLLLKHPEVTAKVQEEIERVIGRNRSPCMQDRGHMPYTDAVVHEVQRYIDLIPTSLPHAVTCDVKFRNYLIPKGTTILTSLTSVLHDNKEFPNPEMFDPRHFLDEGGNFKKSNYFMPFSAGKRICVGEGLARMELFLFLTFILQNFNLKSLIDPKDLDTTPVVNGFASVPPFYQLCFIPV
Cytochrome P450 2C9, sequence (P11712 whole entry): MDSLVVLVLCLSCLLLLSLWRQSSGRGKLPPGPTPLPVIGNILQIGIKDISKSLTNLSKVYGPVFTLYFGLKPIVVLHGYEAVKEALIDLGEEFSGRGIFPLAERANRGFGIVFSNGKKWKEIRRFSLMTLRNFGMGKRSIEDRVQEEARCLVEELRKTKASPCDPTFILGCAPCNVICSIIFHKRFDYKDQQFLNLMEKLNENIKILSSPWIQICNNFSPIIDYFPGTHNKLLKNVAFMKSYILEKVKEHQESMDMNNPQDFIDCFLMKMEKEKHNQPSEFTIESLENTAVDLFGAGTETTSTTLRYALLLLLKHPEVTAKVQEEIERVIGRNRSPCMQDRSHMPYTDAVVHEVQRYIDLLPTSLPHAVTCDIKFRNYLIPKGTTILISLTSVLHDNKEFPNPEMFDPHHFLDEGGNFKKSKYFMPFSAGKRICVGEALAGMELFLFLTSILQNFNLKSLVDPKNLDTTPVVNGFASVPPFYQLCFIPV

SMILES	remaining at 10 min [1] [%]	IC50 [2] [nM]	EC50 [3] [nM]	EC50 [4] [nM]	remaining at 10 min [5] [%]	IC50 [6] [nM]	Emax [7] [%]	remaining at 10 min [8] [%]	remaining at 10 min, 1 mg/mL [9] [%]	remaining at 10 min [10] [%]	remaining at 10 min [11] [%]
CCOc1ncc(-c2cccc(N(CC34CCC(c5noc(C(C)(C)C)n5)(CC3)CC4)C(=O)[C@H]3C[C@](O)(C(F)(F)F)C3)c2)cn1	69	10000	50000	152	73	1000	10	86	–	–	–
CCOc1ncc(-c2cccc(N(CC34CCC(c5noc(C(C)(C)C)n5)(CC3)CC4)C(=O)C34CC(F)(C3)C4)c2)cn1	100	6000	50000	41	80	1000	9	77	–	–	–
O=C(C1CC(F)(F)C1)N(CC12CCC(c3nc(C4CC4)no3)(CC1)CC2)c1cccc(-c2nc(C3CC3)no2)c1	98	17000	1000	–	72	1000	62	100	–	–	–
CCOC(=O)c1nc(-c2cccc(N(CC34CCC(c5nc(C6CC6)no5)(CC3)CC4)C(=O)C3CCCCC3)c2)cs1	–	–	–	919	–	–	–	–	–	–	–
CCOc1cc(-c2cccc(N(CC34CCC(c5nc(C6CC6)no5)(CC3)CC4)C(=O)C3CCCCC3)c2)no1	–	–	–	59	–	–	–	–	–	–	–
CC(C)(C)c1nc(C23CCC(CN(C(=O)C45CC(F)(C4)C5)c4cccc(-c5nnc(C6CC6)o5)c4)(CC2)CC3)no1	76	1000	–	45	60	–	–	52	–	–	–
CCOc1ncc(-c2cccc(N(CC34CCC(c5noc(C(F)F)n5)(CC3)CC4)C(=O)C34CC(F)(C3)C4)c2)cn1	88	7000	2000	170	64	2000	28	84	–	–	–
O=C(C1CCS(=O)(=O)CC1)N(CC12CCC(c3nc(C4CC4)no3)(CC1)CC2)c1cccc(-c2nc(C3CC3)no2)c1	100	8000	4000	1090	10	8000	48	100	–	–	–
O=C(N(CC12CCC(c3nc(C4CC4)no3)(CC1)CC2)c1cccc(-c2nc(C3CC3)no2)c1)C12CC(F)(C1)C2	100	2000	1000	–	99	2000	25	100	–	–	–
O=C(C1CCOCC1)N(CC12CCC(c3nc(C4CC4)no3)(CC1)CC2)c1cccc(-c2nc(C3CC3)no2)c1	86	20000	–	114	0	1000	–	8	–	–	–
COC(=O)/C=C/c1cccc(N(CC23CCC(c4ccc(N5CCCC5)cc4)(CC2)CC3)C(=O)C2CCCCC2)c1	–	–	–	299	–	–	–	–	–	–	–
CC(C)(O)c1ccc(-c2cccc(N(CC34CCC(c5noc(C(C)(C)F)n5)(CC3)CC4)C(=O)[C@H]3C[C@@](C)(O)C3)c2)cc1	100	9000	50000	25	100	5000	13	99	–	–	–
COc1cccc(-c2cccc(N(CC34CCC(c5nc(C6CC6)no5)(CC3)CC4)C(=O)C3CCCCC3)c2)c1	–	–	–	92	–	–	–	–	–	–	–
O=C(C1CCC(F)(F)CC1)N(CC12CCC(c3nc(C4CC4)no3)(CC1)CC2)c1cccc(-c2nc(C3CC3)no2)c1	100	300	8000	149	23	20000	35	82	–	–	–
CCOc1ccc(-c2cccc(N(CC34CCC(c5noc(C(C)(C)C)n5)(CC3)CC4)C(=O)C34CC(F)(C3)C4)c2)cn1	94	8000	50000	–	79	2000	9	58	–	–	–

The remaining lines, values ahead:

remaining at 10 min [1] [%]	IC50 [2] [nM]	EC50 [3] [nM]	EC50 [4] [nM]	remaining at 10 min [5] [%]	IC50 [6] [nM]	Emax [7] [%]	remaining at 10 min [8] [%]	remaining at 10 min, 1 mg/mL [9] [%]	remaining at 10 min [10] [%]	remaining at 10 min [11] [%]	SMILES
38	20000	6000	44	4	20000	21	34	–	–	–	O=C(C1CCCCC1)N(CC12CCC(c3nc(C4CC4)no3)(CC1)CC2)c1cccc(-c2nc(C3CC3)no2)c1
–	–	–	118	–	–	–	–	–	–	–	COC(=O)/C=C/c1cccc(N(CC23CCC(c4ccc(N5CCOCC5)cc4)(CC2)CC3)C(=O)C2CCCCC2)c1
–	–	–	95	–	–	–	–	–	–	–	COc1cc(-c2cccc(N(CC34CCC(c5nc(C6CC6)no5)(CC3)CC4)C(=O)C3CCCCC3)c2)ccn1
64	9000	1500	–	44	1000	37	84	–	–	–	CCOc1ncc(-c2cccc(N(CC34CCC(c5noc(C(C)(C)C)n5)(CC3)CC4)C(=O)[C@H]3C[C@@](C)(O)C3)c2)cn1
100	20000	50000	70	86	20000	11	100	–	–	–	CC(C)(C)c1noc(C23CCC(CN(C(=O)C45CC(F)(C4)C5)c4cccc(-c5nc(C6CC6)no5)c4)(CC2)CC3)n1
–	–	–	57	–	–	–	–	31	6	4	COC(=O)/C=C/c1cccc(N(CC23CCC(c4nc(C)no4)(CC2)CC3)C(=O)C2CCCCC2)c1
–	–	–	111	–	–	–	–	–	–	–	COC(=O)/C=C/c1cccc(N(CC23CCC(c4ccc(C5CC5)cc4)(CC2)CC3)C(=O)C2CCCCC2)c1
–	–	–	142	–	–	–	–	8	60	35	COC(=O)/C=C/c1cccc(N(CC23CCC(c4ccc(OC)cc4)(CC2)CC3)C(=O)C2CCCCC2)c1
98	13000	50000	1640	37	20000	11	71	–	–	–	CN1CCC(C(=O)N(CC23CCC(c4nc(C5CC5)no4)(CC2)CC3)c2cccc(-c3nc(C4CC4)no3)c2)CC1
97	9000	50000	29	81	3000	19	92	–	–	–	CC(C)(C)c1nc(C23CCC(CN(C(=O)C45CC(F)(C4)C5)c4cccc(-c5nc(C6CC6)no5)c4)(CC2)CC3)no1
